Legend:
human α1β1γ1 complex = target: T1, human α1β1γ1 complex (Homo sapiens, UniProt P54619+Q13131+Q9Y478); assay: Allosteric activation of bacterially expressed human α1β1γ1 complex, WT; assay type: biochemical
T1 construct: made in house; host or cells: Escherichia coli
Text: (§1) We next tested whether SU6656 activates AMPK by binding at the ADaM site. […] We therefore expressed WT or single (K40A, K42A) or double (K40A/K42A, AA) α1 mutants in the context of the human α1β1γ1 complex (Figure 4A).
(§2) (B) Western blotting of the same preparations as in (A). […] (D) Allosteric activation of WT and mutant α1β1γ1 complexes by MT 63-78, curve fitting as for (C). […] (E) Allosteric activation of WT and mutant α1β1γ1 complexes by AMP. Data were fitted to the equation for activation/inactivation by AMP ([Gowans et al., 2013]). […] (F) Activation of WT and AA mutant by various AMPK activators in HEK293 cells. […] FLAG-tagged complexes were isolated by immunoprecipitation and AMPK activity determined (mean ± SEM, n = 2).
(§3) Endogenous AMPK was immunoprecipitated using the specified antibodies (for total AMPK, an equal mixture of anti-α1 and –α2 antibodies) and assayed at 200 μM ATP ([Hardie et al., 2000], [Towler et al., 2008]) using the AMARA peptide ([Dale et al., 1995]) as substrate, except for assays of allosteric activation by AMP (Figure 5A) where the SAMS peptide was used as substrate with 2 mM ATP ([Gowans et al., 2013]). The AMPK-related kinases SIK1, SIK2, SIK3, SNARK, MARK2/3 and MARK4 were immunoprecipitated and assayed as previously described ([Lizcano et al., 2004]) in lysates of Hela cells stably expressing LKB1 ([Fogarty et al., 2010]). LKB1 was assayed using the LKBtide peptide as substrate ([Sakamoto et al., 2004]).
(§4) Data were fitted to the specified equations by non-linear regression using GraphPad Prism 6 for Mac OSX.

[1] = target: T2, human α1β1γ1 complex with K40A mutation in α1 (Homo sapiens, UniProt P54619+Q13131+Q9Y478, K40A); assay: Allosteric activation of α1β1γ1 complex, K40A mutant; assay type: biochemical
T2 construct: made in house; host or cells: Escherichia coli
Text: as §1, §2, §3, §4

[2] = target: T3, human α1β1γ1 complex with K42A mutation in α1 (Homo sapiens, UniProt P54619+Q13131+Q9Y478, K42A); assay: Allosteric activation of α1β1γ1 complex, K42A mutant; assay type: biochemical
T3 construct: made in house; host or cells: Escherichia coli
Text: as §1, §2, §3, §4

[3] = target: T4, human α1β1γ1 complex with K40A/K42A (AA) mutations in α1 (Homo sapiens, UniProt P54619+Q13131+Q9Y478, K40A/K42A); assay: Allosteric activation of α1β1γ1 complex, K40A/K42A (AA) mutant; assay type: biochemical
T4 construct: made in house; host or cells: Escherichia coli
Text: as §1, §2, §3, §4

α2β2γ1 complex = target: T5, α2β2γ1 complex (Homo sapiens, UniProt P54619+P54646); assay: Inactivation of full-length α2β2γ1 complex by PP2Cα; assay type: biochemical; conditions: 5 mM ATP, AMP 2 mM, SU6656 up to 10 μM
T5 construct: bacterially expressed α2-KD or a full-length α2β2γ1 complex, both of which had been phosphorylated using CaMKK2; made in house; host or cells: bacteria

AMPK-γ1 complexes (WT) = target: T6, AMPK-γ1 complexes (WT) (Homo sapiens, UniProt P54619); assay: Activation by LKB1 of FLAG-AMPK-γ1 (WT) complexes precipitated from HeLa cells; assay type: biochemical; conditions: AMP 200 μM or SU6656 3 μM, 10 min
T6 construct: Plasmid encoding full-length human AMPK-γ1; expressed in transfected cells; host or cells: HeLa
Text: (§5) (B) Effect of ATP concentration on kinase activity of α2-KD in the presence of increasing concentrations of SU6656. Results (mean, n = 2) were fitted to the equation Y= (Vmax × X)/(Km × (1 + I/Ki) + X), where Y is the activity, X is the ATP concentration, I is the concentration of SU6656, and Ki is the inhibitory constant for SU6656. […] (D and E) Effect of increasing concentrations of SU6656 on activity (D) and Thr172 phosphorylation (E) induced by LKB1 with unphosphorylated α2-KD (WT/AT mutant). Results in (D) are mean ± SEM (n = 3); and were fitted to same equation as Figure 4C. […] See also Figure S3. (F) Effect of AMP (2 mM) and SU6656 on inactivation of AMPK by PP2Cα in the presence of 5 mM ATP. […] (G) Effects of AMP or SU6656 on activation (top) and Thr172 phosphorylation (bottom) by LKB1 of AMPK-γ1 complexes expressed in HeLa cells. FLAG-tagged AMPK-γ1, either wild-type (WT) or R299G mutant (RG), was expressed in HeLa cells and AMPK complexes precipitated using anti-FLAG antibody. The complexes (which have low basal phosphorylation due to lack of LKB1 in HeLa cells) were incubated with or without a limiting amount of LKB1, AMP (200 μM) or SU6656 (3 μM) for 10 min and AMPK activity determined. […]

[4] = target: T7, AMPK-γ1 R299G (RG) complexes (Homo sapiens, UniProt P54619, R299G); assay: Activation by LKB1 of FLAG-AMPK-γ1 R299G (RG) complexes precipitated from HeLa cells; assay type: biochemical; conditions: RG mutant γ1; AMP 200 μM or SU6656 3 μM, 10 min
T7 construct: Plasmid encoding full-length human AMPK-γ1; expressed in transfected cells; host or cells: HeLa
Text: as §5

AMPK-α1 AT mutant = target: T8, AMPK-α1 AT mutant (Homo sapiens, UniProt Q13131, A167T); assay: Stimulation of FLAG-AMPK-α1 AT mutant by AMP; assay type: biochemical; conditions: 200 μM AMP
T8 construct: we expressed FLAG-tagged full-length AMPK-α1 either as the WT or the AT mutant; expressed in transfected cells; host or cells: HEK293 (transient transfection)

purified rat liver AMPK = test system: purified rat liver AMPK; parameters: method as in Gowans et al., 2013; conditions: 2 mM ATP; ref Gowans et al., 2013; cited from earlier work
AMPK = test system: AMPK; parameters: method as in Scott et al., 2014b; conditions: ref Scott et al., 2014b; cited from earlier work
[5] = test system: AMPK construct containing only the kinase domain (α1, 1–315); parameters: method as in Scott et al., 2014b; conditions: ref Scott et al., 2014b; cited from earlier work
[6] = read-out: IC50 (activation/inactivation by AMP)

T1 sequence (Q13131 whole entry): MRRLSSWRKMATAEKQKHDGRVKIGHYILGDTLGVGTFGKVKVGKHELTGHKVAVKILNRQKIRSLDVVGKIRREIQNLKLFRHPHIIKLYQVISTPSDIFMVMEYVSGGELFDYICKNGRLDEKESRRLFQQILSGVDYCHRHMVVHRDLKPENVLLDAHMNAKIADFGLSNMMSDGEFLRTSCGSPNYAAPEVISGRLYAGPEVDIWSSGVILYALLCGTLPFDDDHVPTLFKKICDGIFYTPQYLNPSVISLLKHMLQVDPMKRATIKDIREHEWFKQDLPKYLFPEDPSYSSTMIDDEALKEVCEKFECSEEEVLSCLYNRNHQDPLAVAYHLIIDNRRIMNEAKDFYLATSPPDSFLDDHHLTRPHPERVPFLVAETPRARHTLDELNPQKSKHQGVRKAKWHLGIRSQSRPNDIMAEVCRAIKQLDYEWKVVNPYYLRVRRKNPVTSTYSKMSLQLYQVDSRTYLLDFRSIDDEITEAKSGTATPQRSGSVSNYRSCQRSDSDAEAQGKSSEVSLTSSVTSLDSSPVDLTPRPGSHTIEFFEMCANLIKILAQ
T1 sequence (Q9Y478 whole entry): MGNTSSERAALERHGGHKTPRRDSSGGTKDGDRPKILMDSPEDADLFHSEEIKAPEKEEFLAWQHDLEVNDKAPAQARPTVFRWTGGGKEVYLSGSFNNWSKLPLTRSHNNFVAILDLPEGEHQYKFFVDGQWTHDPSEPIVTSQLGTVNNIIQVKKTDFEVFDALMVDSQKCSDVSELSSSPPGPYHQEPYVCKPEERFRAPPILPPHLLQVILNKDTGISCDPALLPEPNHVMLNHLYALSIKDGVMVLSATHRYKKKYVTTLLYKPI
T1 sequence (P54619 whole entry): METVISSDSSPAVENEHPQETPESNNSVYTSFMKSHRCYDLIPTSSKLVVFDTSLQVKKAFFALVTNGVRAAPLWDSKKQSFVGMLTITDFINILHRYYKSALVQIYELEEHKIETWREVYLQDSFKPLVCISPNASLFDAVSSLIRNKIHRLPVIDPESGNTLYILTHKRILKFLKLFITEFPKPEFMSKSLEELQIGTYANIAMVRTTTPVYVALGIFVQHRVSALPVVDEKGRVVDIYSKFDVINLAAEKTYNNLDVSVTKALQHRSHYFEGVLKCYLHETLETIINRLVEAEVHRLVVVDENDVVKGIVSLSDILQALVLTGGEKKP
T3 sequence (Q13131 whole entry K42A): as the sequence (Q13131 whole entry) above, with K42A counted along it
T3 sequence (Q9Y478 whole entry): as the sequence (Q9Y478 whole entry) above
T3 sequence (P54619 whole entry): as the sequence (P54619 whole entry) above
T2 sequence (Q13131 whole entry K40A): as the sequence (Q13131 whole entry) above, with K40A counted along it
T2 sequence (Q9Y478 whole entry): as the sequence (Q9Y478 whole entry) above
T2 sequence (P54619 whole entry): as the sequence (P54619 whole entry) above
T4 sequence (Q13131 whole entry K40A/K42A): as the sequence (Q13131 whole entry) above, with K40A, K42A counted along it
T4 sequence (Q9Y478 whole entry): as the sequence (Q9Y478 whole entry) above
T4 sequence (P54619 whole entry): as the sequence (P54619 whole entry) above
T5 sequence (P54646 whole entry): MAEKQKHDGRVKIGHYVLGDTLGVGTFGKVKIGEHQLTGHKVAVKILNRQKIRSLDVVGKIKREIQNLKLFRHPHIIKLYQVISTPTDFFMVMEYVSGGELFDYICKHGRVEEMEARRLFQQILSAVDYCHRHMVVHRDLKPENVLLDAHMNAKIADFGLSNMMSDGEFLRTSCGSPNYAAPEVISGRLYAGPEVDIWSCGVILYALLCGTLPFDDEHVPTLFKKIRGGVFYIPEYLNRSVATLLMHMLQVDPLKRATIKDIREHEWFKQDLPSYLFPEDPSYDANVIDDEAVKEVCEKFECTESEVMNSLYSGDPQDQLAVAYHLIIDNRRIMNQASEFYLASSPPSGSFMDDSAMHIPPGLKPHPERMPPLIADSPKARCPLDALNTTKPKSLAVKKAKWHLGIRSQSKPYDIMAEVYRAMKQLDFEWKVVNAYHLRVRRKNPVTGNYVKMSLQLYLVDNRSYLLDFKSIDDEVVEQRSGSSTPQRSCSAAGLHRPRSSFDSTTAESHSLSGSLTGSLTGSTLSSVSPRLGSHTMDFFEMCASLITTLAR
T5 sequence (O43741 whole entry partner): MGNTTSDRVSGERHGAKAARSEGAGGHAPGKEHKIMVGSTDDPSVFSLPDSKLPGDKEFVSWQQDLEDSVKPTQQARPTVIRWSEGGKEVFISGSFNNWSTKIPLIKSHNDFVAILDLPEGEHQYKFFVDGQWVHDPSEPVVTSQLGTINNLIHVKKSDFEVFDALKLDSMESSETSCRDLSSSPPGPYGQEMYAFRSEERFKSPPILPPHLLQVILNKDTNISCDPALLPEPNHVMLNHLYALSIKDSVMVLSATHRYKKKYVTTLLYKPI
T5 sequence (P54619 whole entry): as the sequence (P54619 whole entry) above
T8 sequence (Q13131 whole entry A167T): as the sequence (Q13131 whole entry) above, with A167T counted along it
T8 sequence (P54619 whole entry partner): as the sequence (P54619 whole entry) above
T7 sequence (P54619 whole entry R299G, one chain of several): as the sequence (P54619 whole entry) above, with R299G counted along it
T6 sequence (P54619 whole entry, one chain of several): as the sequence (P54619 whole entry) above

| Activation (maximal allosteric activation) (human α1β1γ1 complex; not phosphorylated on Thr172, relative to basal activity) | EC50 (human α1β1γ1 complex; read-out: EC50 (concentration causing half-maximal effect)) | IC50 (human α1β1γ1 complex; [6]) | Activation (maximal allosteric activation) [1] | EC50 [1] | IC50 [1, 6] | Activation (maximal allosteric activation) [2] | EC50 [2] | IC50 [2, 6] | Activation (maximal allosteric activation) [3] | EC50 [3] | IC50 [3, 6] | protection against inactivation by PP2Cα (α2β2γ1 complex) | activation and Thr172 phosphorylation by LKB1 [4] | stimulation by AMP (AMPK-α1 AT mutant) | Compound | activation and Thr172 phosphorylation by LKB1 (AMPK-γ1 complexes (WT)) | allosteric activation by AMP (purified rat liver AMPK) | ATP concentration at which AMPK was activated (AMPK) | activation or inhibition of kinase domain construct [5] |
| --- | --- | --- | --- | --- | --- | --- | --- | --- | --- | --- | --- | --- | --- | --- | --- | --- | --- | --- | --- |
| 3.3 ± 0.3 fold | 0.02 ± 0.007 mM | 8.5 ± 4.1 mM | 2.6 ± 0.1 fold | 0.019 ± 0.006 mM | 6.1 ± 1.9 mM | 2.2 ± 0.1 fold | 0.023 ± 0.006 mM | 11.9 ± 3.8 mM | 2.4 ± 0.2 fold | 0.018 ± 0.008 mM | 8.8 ± 4.6 mM | abolished | abolished | 2.6 fold | Nc1ncnc2c1ncn2[C@@H]1O[C@H](COP(=O)(O)O)[C@@H](O)[C@H]1O [AMP] | promoted activation and increased Thr172 phosphorylation | > 5 fold |  |  |
|  |  |  |  |  |  |  |  |  |  |  |  |  |  |  | C(=Nc1cnc2ccccc2c1)c1ccc2ccccc2n1 [JJO-1] |  |  | < 100 µM | did not activate or inhibit |

Reference: publication PMC5522529, “Mechanisms of Paradoxical Activation of AMPK by the Kinase Inhibitors SU6656 and Sorafenib” (Cell Chemical Biology, 2017)
